The assay has as its target mouse TRPM3α2 (mTRPM3) ion channel (Mus musculus (Mouse), UniProt J9SQF3). Kind of assay: TRPM3 ion channel driven Ca2+ uptake, Fluo-4 AM assay, mTRPM3alpha2 overexpressing flip-in HEK293 cells stimulated with pregnenolone sulfate. It counts as cell-based. Put shortly: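 Flip-in HEK293 cells loaded with Fluo-4 AM were added to plates holding compound plus 50 μM pregnenolone sulfate in Ca2+-containing Krebs buffer. Fluorescence (ex 485/em 535 nm) read directly after cell addition; % inhibition relative to PS-stimulated vehicle and positive-control inhibitor.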

[1] abbreviates: PS (50 μM) stimulated, cpds. 400-499.
Where [2] appears, read: PS (50 μM) stimulated, cpds. 667-751.
[3] abbreviates: PS (50 μM) stimulated, cpd 001-199.
Setting [4] is: PS (50 μM) stimulated, cpds. 500-599.
Setting [5] is: PS (50 μM) stimulated, cpds. 608-666.

One may read the IC50 as the point on the concentration scale where inhibition reaches its midpoint.

Sequence of mouse TRPM3α2 (mTRPM3) ion channel (J9SQF3 other isoform, or with tags, fused parts or gaps): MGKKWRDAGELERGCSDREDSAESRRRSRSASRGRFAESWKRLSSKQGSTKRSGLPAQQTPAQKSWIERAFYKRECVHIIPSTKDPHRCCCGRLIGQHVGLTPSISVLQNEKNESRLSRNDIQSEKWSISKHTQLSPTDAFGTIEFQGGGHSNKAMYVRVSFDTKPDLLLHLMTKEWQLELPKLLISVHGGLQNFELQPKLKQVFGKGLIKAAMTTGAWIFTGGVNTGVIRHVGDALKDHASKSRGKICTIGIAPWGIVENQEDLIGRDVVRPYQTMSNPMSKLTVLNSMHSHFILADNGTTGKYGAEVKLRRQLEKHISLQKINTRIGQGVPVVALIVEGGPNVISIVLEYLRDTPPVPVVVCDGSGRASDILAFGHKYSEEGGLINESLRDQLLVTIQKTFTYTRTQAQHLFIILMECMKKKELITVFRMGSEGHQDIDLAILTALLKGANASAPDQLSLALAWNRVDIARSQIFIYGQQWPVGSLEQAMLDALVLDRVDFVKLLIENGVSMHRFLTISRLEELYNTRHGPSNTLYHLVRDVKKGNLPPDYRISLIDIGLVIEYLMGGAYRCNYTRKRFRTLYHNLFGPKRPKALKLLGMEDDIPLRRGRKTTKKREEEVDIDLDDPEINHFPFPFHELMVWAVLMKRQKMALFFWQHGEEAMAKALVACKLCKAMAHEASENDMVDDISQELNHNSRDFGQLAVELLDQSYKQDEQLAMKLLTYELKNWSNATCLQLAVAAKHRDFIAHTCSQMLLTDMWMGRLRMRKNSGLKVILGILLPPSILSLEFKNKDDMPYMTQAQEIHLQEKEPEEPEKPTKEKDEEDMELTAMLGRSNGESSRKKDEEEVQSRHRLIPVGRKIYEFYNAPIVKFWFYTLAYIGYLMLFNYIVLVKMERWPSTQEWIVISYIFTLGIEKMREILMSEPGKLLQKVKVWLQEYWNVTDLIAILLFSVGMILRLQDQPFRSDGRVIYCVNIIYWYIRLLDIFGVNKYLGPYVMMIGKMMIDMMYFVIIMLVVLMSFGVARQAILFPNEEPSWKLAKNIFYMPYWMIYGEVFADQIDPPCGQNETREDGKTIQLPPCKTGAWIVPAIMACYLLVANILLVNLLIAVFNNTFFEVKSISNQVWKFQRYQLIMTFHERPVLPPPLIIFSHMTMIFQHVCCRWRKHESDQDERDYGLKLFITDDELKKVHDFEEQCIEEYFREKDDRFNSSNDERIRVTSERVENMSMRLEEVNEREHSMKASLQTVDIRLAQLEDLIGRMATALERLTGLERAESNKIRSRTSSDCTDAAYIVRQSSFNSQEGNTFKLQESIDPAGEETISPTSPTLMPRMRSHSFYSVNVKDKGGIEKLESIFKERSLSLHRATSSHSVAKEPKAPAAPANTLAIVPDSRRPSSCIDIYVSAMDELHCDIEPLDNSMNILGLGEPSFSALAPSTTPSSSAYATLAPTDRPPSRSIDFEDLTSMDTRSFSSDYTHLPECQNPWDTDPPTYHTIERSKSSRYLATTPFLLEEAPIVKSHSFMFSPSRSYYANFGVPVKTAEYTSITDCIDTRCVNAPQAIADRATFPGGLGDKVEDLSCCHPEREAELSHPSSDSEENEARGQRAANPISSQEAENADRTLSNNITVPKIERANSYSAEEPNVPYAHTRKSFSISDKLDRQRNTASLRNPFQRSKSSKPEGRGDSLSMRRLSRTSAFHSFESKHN

`COc1ncccc1COc1ccc2oc(C)c(C(=O)N[C@H](C)CO)c2c1` [compound 497, (R)-N-(1-hydroxypropan-2-yl)-5-((2-methoxypyridin-3-yl)methoxy)-2-methylbenzofuran-3-carboxamide] registered a 50% inhibitory concentration (IC50) under setting [1] of less than 1 µM.
With `Cc1ncsc1COc1ccc2oc(C)c(C(=O)N[C@H](CO)CS(C)(=O)=O)c2c1` [compound 275], the concentration for half-maximal inhibition (IC50) (PS 50 μM, cpds 200-299) is less than 1 µM.
Under setting [1], `Cc1ncsc1COc1ccc2oc(C)c(C(=O)NC(C)(CO)CO)c2c1` [compound 426, N-(1,3-dihydroxy-2-methylpropan-2-yl)-2-methyl-5-((4-methylthiazol-5-yl)methoxy)benzofuran-3-carboxamide] displayed a half-maximal inhibitory concentration (IC50) of less than 1 µM.
The compound `Cc1oc2ccc(OCc3ccnn3C(C)C)cc2c1C(=O)N[C@@H](CO)C(N)=O` [compound 676, (S)-N-(1-amino-3-hydroxy-1-oxopropan-2-yl)-5-((1-isopropyl-1H-pyrazol-5-yl)methoxy)-2-methylbenzofuran-3-carboxamide] yielded an IC50 under setting [2] of less than 1 µM.
In the case of `Cc1oc2ccc(OCc3ccccn3)cc2c1C(=O)NC(C)(CO)CO` [compound 428, N-(1,3-dihydroxy-2-methylpropan-2-yl)-2-methyl-5-(pyridin-2-ylmethoxy)benzofuran-3-carboxamide], under setting [1], the half-maximal inhibitory concentration (IC50) was less than 1 µM.
`Cc1oc2ccc(OCc3ncccc3C(F)F)cc2c1C(=O)N[C@@H](CO)C(N)=O` [compound 301, (S)-N-(1-amino-3-hydroxy-1-oxopropan-2-yl)-5-((3-(difluoromethyl)pyridin-2-yl)methoxy)-2-methylbenzofuran-3-carboxamide] returned an IC50 (PS 50 μM, cpds 300-399) of less than 1 µM.
In the case of `Cc1oc2ccc(OCc3cccnc3C(F)(F)F)cc2c1C(=O)Nc1cnn(C)c1` [compound 143, 2-methyl-N-(1-methyl-1H-pyrazol-4-yl)-5-((2-(trifluoromethyl)pyridin-3-yl)methoxy)benzofuran-3-carboxamide], the IC50 under setting [3] is less than 1 µM.
For `O=C(NC1CCNCC1(F)F)c1c(C(F)F)oc2ccc(OCc3cccnc3C(F)(F)F)cc12` (single isomer, unassigned) [199-En 1, 2-(difluoromethyl)-N-(3,3-difluoropiperidin-4-yl)-5-((2-(trifluoromethyl)pyridin-3-yl)methoxy) -benzofuran-3-carboxamide], under setting [3], the IC50 was less than 1 µM.
For `COc1ncccc1COc1ccc2oc(C)c(C(=O)NC3(CO)CCOCC3)c2c1F` [compound 330, 4-fluoro-N-(4-(hydroxymethyl)tetrahydro-2H-pyran-4-yl)-5-((2-methoxypyridin-3-yl)methoxy)-2-methylbenzofuran-3-carboxamide], the half-inhibitory concentration (IC50) (PS 50 μM, cpds 300-399) is less than 1 µM.
`Cc1ncsc1COc1ccc2oc(C)c(C(=O)N(C)C3(CO)COC3)c2c1` [compound 529, N-(3-(hydroxymethyl)oxetan-3-yl)-N.2-dimethyl-5-((4-methylthiazol-5-yl)methoxy)benzofuran-3-carboxamide] showed an IC50 under setting [4] of less than 1 µM.
`Cc1ncsc1COc1ccc2oc(C)c(C(=O)NC3CCN(CCO)C3=O)c2c1` (single isomer, unassigned) [160-En 1, N-(1-(2-hydroxyethyl)-2-oxopyrrolidin-3-yl)-2-methyl-5-((4-methylthiazol-5-yl)methoxy)benzo-furan-3-carboxamide] displayed an IC50 under setting [3] of less than 1 µM.
Take `Cc1ncsc1COc1cc(F)c2oc(C)c(C(=O)NC3(CO)COC3)c2c1` [compound 367, 7-fluoro-N-(3-(hydroxymethyl)oxetan-3-yl)-2-methyl-5-((4-methylthiazol-5-yl)methoxy)benzofuran-3-carboxamide]: where the note is “PS 50 μM, cpds 300-399”, the 50% inhibitory concentration (IC50) is less than 1 µM.
`Cc1oc2ccc(OCc3cncs3)cc2c1C(=O)NC1(CO)CCOCC1` [compound 627, N-(4-(hydroxymethyl)tetrahydro-2H-pyran-4-yl)-2-methyl-5-(thiazol-5-ylmethoxy)benzofuran-3-carboxamide]: under setting [5], the concentration for half-maximal inhibition (IC50) is less than 1 µM.
As for `Cc1oc2ccc(OCc3ccccn3)cc2c1C(=O)NC1CCNC1=O` (stereo not drawn) [compound 026, 2-methyl-N-(2-oxopyrrolidin-3-yl)-5-(pyridin-2-ylmethoxy)benzofuran-3-carboxamide], under setting [3], the half-maximal inhibitory concentration (IC50) is less than 1 µM.
`Cc1ccncc1COc1ccc2oc(C)c(C(=O)N[C@@H](CO)C(N)=O)c2c1` [compound 287] showed an IC50 (PS 50 μM, cpds 200-299) of less than 1 µM.
Turning to `Cc1oc2ccc(OCc3ccccn3)cc2c1C(=O)NC(C)(C)CO` [compound 484, N-(1-hydroxy-2-methylpropan-2-yl)-2-methyl-5-(pyridin-2-ylmethoxy)benzofuran-3-carboxamide], the IC50 under setting [1] was less than 1 µM.
`Cc1ncsc1COc1ccc2oc(C)c(C(=O)NCCC(F)F)c2c1` [compound 574, N-(3,3-difluoropropyl)-2-methyl-5-((4-methylthiazol-5-yl)methoxy)benzofuran-3-carboxamide] displayed a half-inhibitory concentration (IC50) under setting [4] of less than 1 µM.
For the compound `Cc1oc2ccc(OCc3cccnc3C(F)(F)F)cc2c1C(=O)N[C@@H]1CN(C(=O)OCC(F)(F)F)CC1(F)F` [compound 175, 2,2,2-trifluoroethyl (R)-3,3-difluoro-4-(2-methyl-5-((2-(trifluoromethyl)pyridin-3-yl)methoxy) -benzofuran-3-carboxamido)pyrrolidine-1-carboxylate], under setting [3], the IC50 was less than 1 µM.
Regarding `Cc1ncc(COc2ccc3oc(C)c(C(=O)NCC(C)(F)F)c3c2)s1` [compound 499, N-(2,2-difluoropropyl)-2-methyl-5-((2-methylthiazol-5-yl)methoxy)benzofuran-3-carboxamide], the IC50 under setting [1] was less than 1 µM.
For the compound `Cc1csc(COc2ccc3oc(C)c(C(=O)NC4CCNCC4(F)F)c3c2)n1` (single isomer, unassigned) [cpd 552-En 2], the 50% inhibitory concentration (IC50) under setting [4] was 1 to 20 µM.
Turning to `Cc1ncsc1COc1ccc2oc(C)c(C(=O)N(C)C3(CO)CCOCC3)c2c1` [compound 634, N-(4-(hydroxymethyl)tetrahydro-2H-pyran-4-yl)-N.2-dimethyl-5-((4-methylthiazol-5-yl)methoxy)benzofuran-3-carboxamide], under setting [5], the 50% inhibitory concentration (IC50) is less than 1 µM.
Turning to `Cc1oc2ccc(OCc3cnc(C(F)(F)F)s3)cc2c1C(=O)N[C@@H](CO)C(N)=O` [compound 281, (S)-N-(1-amino-3-hydroxy-1-oxopropan-2-yl)-2-methyl-5-((2-(trifluoromethyl)thiazol-5-yl)methoxy)benzofuran-3-carboxamide], the half-maximal inhibitory concentration (IC50) (PS 50 μM, cpds 200-299) was less than 1 µM.
Still for that read-out and setting: the figure for `Cc1nc(C(F)(F)F)c(COc2ccc3oc(C)c(C(=O)N[C@@H](CO)C(N)=O)c3c2)s1` [compound 282, (S)-N-(1-amino-3-hydroxy-1-oxopropan-2-yl)-2-methyl-5-((2-methyl-4-(trifluoromethyl)thiazol-5-yl)methoxy)benzofuran-3-carboxamide] is less than 1 µM.
The compound `Cc1ncsc1COc1ccc2oc(C(F)F)c(C(=O)NC3CCNCC3(F)F)c2c1` (single isomer, unassigned) [cpd 310-En 1] came in with a half-inhibitory concentration (IC50) (PS 50 μM, cpds 300-399) of less than 1 µM.
The compound `Cc1oc2ccc(OCc3cncc(C(F)(F)F)c3)cc2c1C(=O)N[C@H]1CCN(C(=O)OC(C)(C)C)C1` [compound 077, tert-butyl (S)-3-(2-methyl-5-((5-(trifluoromethyl)pyridin-3-yl)methoxy)benzofuran-3-carboxamido)pyrrolidine-1-carboxylate] gave a half-inhibitory concentration (IC50) under setting [3] of more than 20 µM.
For the compound `Cc1ncsc1COc1ccc2oc(C)c(C(=O)NC3CCOC3)c2c1` (single isomer, unassigned) [cpd 159-En 1], the IC50 under setting [3] was less than 1 µM.
With `Cc1ncsc1COc1ccc2oc(C)c(C(=O)NC(C)(C)C(N)=O)c2c1` [compound 440, N-(1-amino-2-methyl-1-oxopropan-2-yl)-2-methyl-5-((4-methylthiazol-5-yl)methoxy)benzofuran-3-carboxamide], under setting [1], the half-inhibitory concentration (IC50) was less than 1 µM.
With `Cc1ncc(COc2ccc3oc(C(F)F)c(C(=O)N[C@@H](CO)C(N)=O)c3c2)o1` [compound 746, (S)-N-(1-amino-3-hydroxy-1-oxopropan-2-yl)-2-(difluoromethyl)-5-((2-methyloxazol-5-yl)methoxy)benzofuran-3-carboxamide], the 50% inhibitory concentration (IC50) under setting [2] was less than 1 µM.
The compound `Cc1ncsc1COc1ccc2oc(C)c(C(=O)NCC(C)(C)C(N)=O)c2c1` [compound 576, N-(3-amino-2,2-dimethyl-3-oxopropyl)-2-methyl-5-((4-methylthiazol-5-yl)methoxy)benzofuran-3-carboxamide] yielded a half-maximal inhibitory concentration (IC50) under setting [4] of less than 1 µM.
As to `Cc1ncc(COc2ccc3oc(C)c(C(=O)NC(C)(CO)C(N)=O)c3c2)o1` (single isomer, unassigned) [cpd 722-En 1], the IC50 under setting [2] is less than 1 µM.
Take `Cc1oc2ccc(OCc3ccc(F)cn3)cc2c1C(=O)NC1CCNCC1(F)F` (single isomer, unassigned) [cpd 568-En 1]: the 50% inhibitory concentration (IC50) under setting [4] was less than 1 µM.
For the setting “PS 50 μM, cpds 300-399”, `Cc1oc2ccc(OCc3cccnc3C(F)F)cc2c1C(=O)NC1CCNCC1(F)F` (single isomer, unassigned) [cpd 342-En 1] returned an IC50 of less than 1 µM.
Compound `Cc1oc2ccc(OCc3ncn(C)n3)cc2c1C(=O)NC1CCNCC1(F)F` (single isomer, unassigned) [cpd 542-En 2] yielded an IC50 under setting [4] of more than 20 µM.
Take `Cc1oc2ccc(OCc3ccccn3)cc2c1C(=O)NC1(CO)CCOCC1` [compound 047, N-(4-(hydroxymethyl)tetrahydro-2H-pyran-4-yl)-2-methyl-5-(pyridin-2-ylmethoxy)benzofuran-3-carboxamide]: the IC50 under setting [3] is less than 1 µM.
`Cc1ncoc1COc1ccc2oc(C)c(C(=O)N[C@@H](CO)C(N)=O)c2c1` [compound 680, (S)-N-(1-Amino-3-hydroxy-1-oxopropan-2-yl)-2-methyl-5-((4-methyloxazol-5-yl)methoxy)benzofuran-3-carboxamide]: the IC50 under setting [2] was less than 1 µM.
Compound `Cc1ncc(COc2ccc3oc(C)c(C(=O)NC(Cn4cncn4)C(N)=O)c3c2)s1` (single isomer, unassigned) [432-En 1, N-(1-amino-1-oxo-3-(1H-1,2,4-triazol-1-yl)propan-2-yl)-2-methyl-5-((2-methylthiazol-5-yl)methoxy)benzofuran-3-carboxamide] showed a half-inhibitory concentration (IC50) under setting [1] of 1 to 20 µM.

For the origin of these results see patent US12209081B2 (Katholieke Universiteit Leuven, priority 2020, dated 2025).
